Measured values: patent US20140045873A1, “NOVEL MICROBIOCIDES” (SYNGENTA PARTICIPATIONS AG, priority 2010, published 2014)
Where two headings read alike, the source gives them in different places.

Tests used:
[1] = system: Botryotinia fuckeliana (Botrytis cinerea); test: Botryotinia fuckeliana (Botrytis cinerea) / liquid culture (gray mould); assay type: cell-based; details: Vogels broth, 24° C., 3-4 days after application, read-out: control of Botryotinia fuckeliana (inhibition of growth, photometric)
Text: Botryotinia Fuckeliana (Botrytis cinerea)/Liquid Culture (Gray Mould): Conidia of the fungus from cryogenic storage were directly mixed into nutrient broth (Vogels broth). […].45

[2] = system: Glomerella lagenarium (Colletotrichum lagenarium); test: Glomerella lagenarium (Colletotrichum lagenarium) / liquid culture (anthracnose); assay type: cell-based; details: Colletotrichum orbiculare; 200 ppm, liquid culture, PDB, 24° C., 3-4 days after application; read-out: control of Glomerella lagenarium (inhibition of growth, photometric)
[3] = system: Mycosphaerella arachidis (Cercospora arachidicola); test: Mycosphaerella arachidis (Cercospora arachidicola) / liquid culture (early leaf spot); assay type: cell-based; details: 200 ppm, liquid culture, PDB, 24° C., 4-5 days after application, read-out: control of Mycosphaerella arachidis (inhibition of growth, photometric)
[4] = system: Mycosphaerella graminicola (Septoria tritici); test: Mycosphaerella graminicola (Septoria tritici) / liquid culture (Septoria blotch); assay type: cell-based; details: Zymoseptoria tritici; 200 ppm, liquid culture, PDB, 24° C., 4-5 days after application; read-out: control of Mycosphaerella graminicola (inhibition of growth, photometric)
Gaeumannomyces graminis = Gaeumannomyces graminis / liquid culture (take-all of cereals); assay type: cell-based; details: 200 ppm, liquid culture, PDB, 24° C., 4-5 days after application, read-out: control of Gaeumannomyces graminis (inhibition of growth, photometric)
Pyrenophora teres = details: in Hordeum vulgare, foliar, read-out: control of Pyrenophora teres (disease control compared to untreated)
[5] = system: Puccinia recondita f. sp. tritici; details: in Triticum aestivum, foliar, read-out: control of Puccinia recondita f. sp. tritici (percent disease control compared to untreated)
[6] = system: Puccinia recondita f. sp. tritici; details: in Triticum aestivum, foliar, read-out: control of Puccinia recondita f. sp. tritici (percent disease control compared to untreated); remark: listed apart in the source
[7] = system: Thanatephorus cucumeris (Rhizoctonia solani); details: read-out: control of Thanatephorus cucumeris (inhibition of growth, photometric)
[8] = system: Phaeosphaeria nodorum (Septoria nodorum); details: Parastagonospora nodorum, in Triticum aestivum, foliar, read-out: control of Phaeosphaeria nodorum (percent disease control compared to untreated)
[9] = system: Monographella nivalis (Microdochium nivale); test: Monographella nivalis (Microdochium nivale) / liquid culture (foot rot cereals); assay type: cell-based; details: PDB, 24° C., 4-5 days after application, read-out: control of Monographella nivalis (inhibition of growth, photometric)
Alternaria solani = Alternaria solani / tomato / leaf disc (early blight); assay type: in vivo; details: foliar, tomato leaf disks cv. Baby, inoculated 2 days after application, assessed 5-7 days after application, read-out: control of Alternaria solani (percent disease control compared to untreated)
Method: The inoculated leaf disks were incubated at 23° C./21° C. […].44

Pythium ultimum = Pythium ultimum / liquid culture (seedling damping off); assay type: cell-based; details: Globisporangium ultimum, potato dextrose broth, 24° C., 2-3 days after application, read-out: control of Pythium ultimum (inhibition of growth, photometric)

Q: With `CCc1cc(O)c(C)c(-c2cccc(CCCO/N=C(\C)c3cccc(C)n3)n2)n1` [P.32] as the molecule, how does the melting point read?
A: 128 to 130 °C

Q: With `C/C(=N\OCCCc1cccc(-c2cc(Cl)cc(C)n2)n1)c1cccc(C)n1` [P.16, 1-(6-methyl-pyridin-2-yl)-ethanone-O-[3-(4′-chloro-6′-methyl-[2,2′]bipyridinyl-6-yl)-propyl]-oxime] as the molecule, how does the inhibition at 200 ppm [1] read?
A: ≥ 80%

Q: And the inhibition at 200 ppm [2]?
A: ≥ 80%

Q: What about the inhibition at 200 ppm [3] of the same molecule?
A: ≥ 80%

Q: And the inhibition at 200 ppm [4]?
A: ≥ 80%

Q: And the inhibition at 200 ppm (Gaeumannomyces graminis)?
A: ≥ 80%

Q: What about the melting point of the same molecule?
A: 53 to 54 °C

Q: And the pest or weed control at 200 ppm (Pyrenophora teres)?
A: ≥ 80%

Q: And the pest or weed control at 200 ppm [5]?
A: ≥ 80%

Q: And the pest or weed control at 200 ppm [6]?
A: ≥ 80%

Q: What about the inhibition at 200 ppm [7] of the same molecule?
A: ≥ 80%

Q: And the pest or weed control at 200 ppm [8]?
A: ≥ 80%

Q: Which inhibition at 200 ppm [1] does the source give for `COc1cc(C)nc(-c2cccc(CCCO/N=C(\C)c3cccc(C)n3)n2)c1` [P.11, 1-(6-methyl-pyridin-2-yl)-ethanone-O-[3-(4′-methoxy-6′-methyl-[2,2]bipyridinyl-6-yl)-propyl]-oxime] here?
A: ≥ 80%

Q: What about the inhibition at 200 ppm [2] of the same molecule?
A: ≥ 80%

Q: What about the inhibition at 200 ppm [3] of the same molecule?
A: ≥ 80%

Q: What about the inhibition at 200 ppm [4] of the same molecule?
A: ≥ 80%

Q: What about the inhibition at 200 ppm (Gaeumannomyces graminis) of the same molecule?
A: ≥ 80%

Q: And the inhibition at 200 ppm [9]?
A: ≥ 80%

Q: What about the melting point of the same molecule?
A: 84 to 86 °C

Q: And the pest or weed control at 200 ppm (Pyrenophora teres)?
A: ≥ 80%

Q: What about the pest or weed control at 200 ppm [5] of the same molecule?
A: ≥ 80%

Q: And the pest or weed control at 200 ppm [6]?
A: ≥ 80%

Q: And the inhibition at 200 ppm [7]?
A: ≥ 80%

Q: What about the pest or weed control at 200 ppm [8] of the same molecule?
A: ≥ 80%

Q: What does the source list for `COc1cc(C)nc(-c2cccc(CCCO/N=C(\C)c3nc(C)cc(C)n3)n2)c1` [P.44]?
A: inhibition at 200 ppm [1]: ≥ 80%; inhibition at 200 ppm [2]: ≥ 80%; inhibition at 200 ppm [3]: ≥ 80%; inhibition at 200 ppm [4]: ≥ 80%; inhibition at 200 ppm (Gaeumannomyces graminis): ≥ 80%; inhibition at 200 ppm [9]: ≥ 80%; pest or weed control at 200 ppm (Alternaria solani): ≥ 80%; inhibition at 200 ppm (Pythium ultimum): ≥ 80%; pest or weed control at 200 ppm (Pyrenophora teres): ≥ 80%; pest or weed control at 200 ppm [5]: ≥ 80%; pest or weed control at 200 ppm [6]: ≥ 80%; inhibition at 200 ppm [7]: ≥ 80%; pest or weed control at 200 ppm [8]: ≥ 80%

Q: With `CSc1cc(C)nc(-c2cccc(CCCO/N=C(\C)c3cccc(C)n3)n2)c1` [P.17] as the molecule, how does the inhibition at 200 ppm [2] read?
A: ≥ 80%

Q: And the inhibition at 200 ppm [3]?
A: ≥ 80%

Q: What about the inhibition at 200 ppm [4] of the same molecule?
A: ≥ 80%

Q: And the inhibition at 200 ppm (Gaeumannomyces graminis)?
A: ≥ 80%

Q: And the inhibition at 200 ppm [9]?
A: ≥ 80%

Q: What about the inhibition at 200 ppm (Pythium ultimum) of the same molecule?
A: ≥ 80%

Q: What about the melting point of the same molecule?
A: 76 to 77 °C

Q: What about the pest or weed control at 200 ppm (Pyrenophora teres) of the same molecule?
A: ≥ 80%

Q: What about the pest or weed control at 200 ppm [5] of the same molecule?
A: ≥ 80%

Q: What about the pest or weed control at 200 ppm [6] of the same molecule?
A: ≥ 80%

Q: And the inhibition at 200 ppm [7]?
A: ≥ 80%

Q: And the pest or weed control at 200 ppm [8]?
A: ≥ 80%
